Patent publication US20080269510A1, “New alpha-glucosidase inhibitors and antibacterial compounds from Myrtus communis L” (priority 2005, published 2008)

Key:
Shigella flexneri = test: Antibacterial screening, agar well diffusion; settings: 100 μL of 3 mg/3 ml DMSO sample per 6-mm well, 37° C., 24 h
[1] = biological target: α-Glucosidase (E.C.3.2.1.20); test: α-Glucosidase enzyme inhibition assay (PNP-G substrate, spectrophotometric); type: biochemical; settings: for IC50: pH 6.9, 37° C., 0.7 mM PNP-G, 500 m units/mL enzyme, read-out: α-glucosidase inhibitory activity IC50; for α-glucosidase inhibition (in words): compared with standards acarbose and deoxynojirimycin
Procedure: α-Glucosidase (E.C.3.2.1.20) enzyme inhibition assay has been performed according to the slightly modified method of Matsui et al., (Matsui T., Yoshimoto C., Osajima K., Oki T., and Osajima Y., Biosci. Biotech. Biochem., 1996, 60, 2019-2022). α-Glucosidase (E.C.3.2.1.20) from Saccharomyces species, purchased commercially (Wako 076-02841; Wako Pure Chemical Industries Ltd., 1-2 Doshomachi 3-Chome, Chuo-ku, Osaka 540-8605, Japan). The enzyme inhibition was measured spectrophotometrically at pH 6.9 and at 37° C. using 0.7 mM p-nitrophenyl α-D glucopyranoside (PNP-G) as a substrate and 500 m units/mL enzyme, in 50 mM sodium phosphate buffer containing 100 mM NaCl. […] The increment in absorption at 400 nm, due to the hydrolysis of PNP-G by α-glucosidase, was monitored continuously on microplate spectrophotometer (Spectra Max Molecular Devices, USA).

Salmonella typhi = test: Antibacterial screening, agar well diffusion; type: cell-based; settings: for Inhibition zone, ST (Salmonella typhi): 100 μL of 3 mg/3 ml DMSO sample per 6-mm well, 37° C., 24 h
Bacillus subtilis = test: Antibacterial screening, agar well diffusion; type: cell-based; settings: 100 μL of 3 mg/3 ml DMSO sample per 6-mm well, 37° C., 24 h
Description: (§1) As a negative control, DMSO was used.

Staphylococcus aureus = test: Antibacterial screening, agar well diffusion; type: cell-based; settings: for Inhibition zone, SA (Staphylococcus aureus): 100 μL of 3 mg/3 ml DMSO sample per 6-mm well, 37° C., 24 h
Description: as §1

Escherichia coli = test: Antibacterial screening, agar well diffusion; type: cell-based; settings: 100 μL of 3 mg/3 ml DMSO sample per 6-mm well, 37° C., 24 h
Description: as §1

Pseudomonas aeruginosa = test: Antibacterial screening, agar well diffusion; type: cell-based; settings: for Inhibition zone, PA (Pseudomonas aeruginosa): 100 μL of 3 mg/3 ml DMSO sample per 6-mm well, 37° C., 24 h
Description: as §1

[2] = autoxidation and FeCl3- and EDTA-mediated oxidation of linoleic acid; cited from earlier work
[3] = tested on: multidrug-resistant (MDR) clinically relevant bacteria; settings: cited from earlier work

For `CC(C)C(=O)c1c(O)c2c(c3c1OC1=C(C(=O)C(C)(C)C(=O)C1(C)C)[C@@H]3C(C)C)OC1=C(C(=O)C(C)(C)C(=O)C1(C)C)[C@@H]2C(C)C` [Compound 2, Myrtucommulone-E], the “Inhibition zone, SF (Shigella flexneri)” value (Shigella flexneri) was 10 mm, the IC50 [1] was 46.6 µM and the “Inhibition zone, ST (Salmonella typhi)” value (Salmonella typhi) was 17 mm. For the same compound, the “Inhibition zone, BS (Bacillus subtilis)” value (Bacillus subtilis) was 15 mm, the “antibacterial activity against Staphylococcus aureus (in words)” value (Staphylococcus aureus) was “significant antibacterial activity” and the “Inhibition zone, EC (Escherichia coli)” value (Escherichia coli) was 10 mm. The “Inhibition zone, PA (Pseudomonas aeruginosa)” value (from here on “Inhibition zone, PA”) (Pseudomonas aeruginosa) was 13 mm.
In the case of `CC(C)C(=O)c1c(O)c(C(C2=C(O)C(C)(C)C(=O)C(C)(C)C2=O)C(C)C)c(O)c2c1OC1=C(C(=O)C(C)(C)C(=O)C1(C)C)C2C(C)C` (centres unmarked) [Compound 3, Myrtucommulone-C], the “α-glucosidase inhibition (in words)” value [1] is reported as “highest activity” and the IC50 [1] is reported as 35.4 ± 1.15 µM.
For `CC(C)C(=O)c1c(O)cc(O)c2c1OC1=C(C(=O)C(C)(C)C(=O)C1(C)C)C2C(C)C` (centres unmarked) [Compound 4, Myrtucommulone-B], the “α-glucosidase inhibition (in words)” value [1] was “strong inhibition” and the IC50 [1] was 40 ± 1 µM.
For `CC[C@H](CC[C@@H](C)[C@H]1CC[C@H]2[C@@H]3CC=C4C[C@@H](O)CC[C@]4(C)[C@H]3CC[C@]12C)C(C)C` [Compound 7, β-sitosterol], the “activity against Salmonella typhi (in words)” value (Salmonella typhi) was “significant activity”, the “Inhibition zone, ST (Salmonella typhi)” value (Salmonella typhi) was 18 mm and the “Inhibition zone, BS (Bacillus subtilis)” value (Bacillus subtilis) was 12 mm. The “Inhibition zone, SA (Staphylococcus aureus)” value (from here on “Inhibition zone, SA”) (Staphylococcus aureus) was 15 mm, the “activity against Pseudomonas aeruginosa (in words)” value (Pseudomonas aeruginosa) was “significant activity” and the “Inhibition zone, PA” value (Pseudomonas aeruginosa) was 16 mm.
For `CC(=O)c1c(O)c(C)c(O)c2c1OC1=CC(=O)C(C(C)=O)C(=O)C12C` (centres unmarked) [Compound 9, usnic acid], the “Inhibition zone, SF (Shigella flexneri)” value (Shigella flexneri) was 15 mm, the “Inhibition zone, ST (Salmonella typhi)” value (Salmonella typhi) was 17 mm and the “Inhibition zone, BS (Bacillus subtilis)” value (Bacillus subtilis) was 16 mm. The “Inhibition zone, SA” value (Staphylococcus aureus) was 15 mm, the “Inhibition zone, EC (Escherichia coli)” value (Escherichia coli) was 11 mm and the “Inhibition zone, PA” value (Pseudomonas aeruginosa) was 17 mm.
For `C[C@H]1[C@H](C)CC[C@]2(C(=O)O)CC[C@]3(C)C(=CC[C@@H]4[C@@]5(C)C[C@@H](O)[C@H](O)C(C)(C)[C@@H]5CC[C@]43C)[C@H]12` [Compound 11, corosolic acid], the “Inhibition zone, SF (Shigella flexneri)” value (Shigella flexneri) was 15 mm, the “activity against Salmonella typhi (in words)” value (Salmonella typhi) was “significant activity” and the “Inhibition zone, ST (Salmonella typhi)” value (Salmonella typhi) was 17 mm. For the same compound, the “Inhibition zone, BS (Bacillus subtilis)” value (Bacillus subtilis) was 15 mm, the “activity against Pseudomonas aeruginosa (in words)” value (Pseudomonas aeruginosa) was “significant activity” and the “Inhibition zone, PA” value (Pseudomonas aeruginosa) was 17 mm.
In the case of `CC1(C)CC[C@]2(C(=O)O)CC[C@]3(C)C(=CC[C@@H]4[C@@]5(C)C[C@@H](O)[C@H](O)[C@@](C)(CO)[C@@H]5CC[C@]43C)[C@@H]2C1` [Compound 12, arjunolic acid], the “Inhibition zone, SF (Shigella flexneri)” value (Shigella flexneri) is reported as 13 mm, the “activity against Salmonella typhi (in words)” value (Salmonella typhi) is reported as “significant activity” and the “Inhibition zone, ST (Salmonella typhi)” value (Salmonella typhi) is reported as 16 mm. The “Inhibition zone, BS (Bacillus subtilis)” value (Bacillus subtilis) was 15 mm, the “Inhibition zone, SA” value (Staphylococcus aureus) was 15 mm and the “Inhibition zone, EC (Escherichia coli)” value (Escherichia coli) was 9 mm. For the same compound, the “activity against Pseudomonas aeruginosa (in words)” value (Pseudomonas aeruginosa) was “significant activity” and the “Inhibition zone, PA” value (Pseudomonas aeruginosa) was 12 mm.
In the case of `CC1(C)CC[C@]2(CO)CC[C@]3(C)C(=CC[C@@H]4[C@@]5(C)CC[C@H](O)C(C)(C)[C@@H]5CC[C@]43C)[C@@H]2C1` [Compound 13, erythrodiol], the “activity against Salmonella typhi (in words)” value (Salmonella typhi) is reported as “significant activity”, the “Inhibition zone, ST (Salmonella typhi)” value (Salmonella typhi) is reported as 19 mm and the “Inhibition zone, BS (Bacillus subtilis)” value (Bacillus subtilis) is reported as 17 mm. The “Inhibition zone, SA” value (Staphylococcus aureus) was 11 mm, the “Inhibition zone, EC (Escherichia coli)” value (Escherichia coli) was 16 mm and the “activity against Pseudomonas aeruginosa (in words)” value (Pseudomonas aeruginosa) was “significant activity”. The “Inhibition zone, PA” value (Pseudomonas aeruginosa) was 12 mm.
For `CC1(C)CC[C@]2(C(=O)O)CC[C@]3(C)C(=CC[C@@H]4[C@@]5(C)CC[C@H](O)C(C)(C)[C@@H]5CC[C@]43C)[C@@H]2C1` [Compound 14, oleanolic acid], the “Inhibition zone, SF (Shigella flexneri)” value (Shigella flexneri) was 10 mm, the “activity against Salmonella typhi (in words)” value (Salmonella typhi) was “significant activity” and the “Inhibition zone, ST (Salmonella typhi)” value (Salmonella typhi) was 16 mm. The “Inhibition zone, BS (Bacillus subtilis)” value (Bacillus subtilis) was 15 mm, the “activity against Pseudomonas aeruginosa (in words)” value (Pseudomonas aeruginosa) was “significant activity” and the “Inhibition zone, PA” value (Pseudomonas aeruginosa) was 16 mm.
In the case of `C=C(C)[C@@H]1CC[C@]2(CO)CC[C@]3(C)[C@H](CC[C@@H]4[C@@]5(C)CC[C@H](O)C(C)(C)[C@@H]5CC[C@]43C)[C@@H]12` [Compound 15, betulin], the “Inhibition zone, SF (Shigella flexneri)” value (Shigella flexneri) is reported as 15 mm, the “activity against Salmonella typhi (in words)” value (Salmonella typhi) is reported as “significant activity” and the “Inhibition zone, ST (Salmonella typhi)” value (Salmonella typhi) is reported as 16 mm. The “activity against Pseudomonas aeruginosa (in words)” value (Pseudomonas aeruginosa) was “significant activity” and the “Inhibition zone, PA” value (Pseudomonas aeruginosa) was 18 mm.
In the case of `C[C@@H](O)[C@H]1C(=O)N2C(C(=O)O)=C(SCCN=CN)C[C@H]12` [Imipenem, reference compound], the “Inhibition zone, SF (Shigella flexneri)” value (Shigella flexneri) is reported as 27 mm, the “Inhibition zone, ST (Salmonella typhi)” value (Salmonella typhi) is reported as 25 mm and the “Inhibition zone, BS (Bacillus subtilis)” value (Bacillus subtilis) is reported as 33 mm. The “Inhibition zone, SA” value (Staphylococcus aureus) was 33 mm, the “Inhibition zone, EC (Escherichia coli)” value (Escherichia coli) was 30 mm and the “Inhibition zone, PA” value (Pseudomonas aeruginosa) was 24 mm.
In the case of `CC(C)C(=O)c1c(O)c([C@H](C2=C(O)C(C)(C)C(=O)C(C)(C)C2=O)C(C)C)c(O)c([C@H](C2=C(O)C(C)(C)C(=O)C(C)(C)C2=O)C(C)C)c1O` [Myrtucommulone-A], the “antioxidant properties (in words)” value [2] is given as “powerful antioxidant properties” and the “antibacterial activity against MDR bacteria (in words)” value [3] is given as “significant antibacterial activity”.
In the case of `Cc1c(O)c(C(=O)C(C)C)c(O)c(C(C2=C(O)C(C)(C)C(=O)C(C)(C)C2=O)C(C)C)c1O` (centres unmarked) [semimyrtucommulone], the “antioxidant properties (in words)” value [2] is given as “powerful antioxidant properties” and the “antibacterial activity against MDR bacteria (in words)” value [3] is given as “less active”.
For Myrtucommulone-D [Compound 1], the “Inhibition zone, SF (Shigella flexneri)” value (Shigella flexneri) was 12 mm, the IC50 [1] was 84.3 ± 3 µM and the “Inhibition zone, ST (Salmonella typhi)” value (Salmonella typhi) was 15 mm. For the same compound, the “Inhibition zone, BS (Bacillus subtilis)” value (Bacillus subtilis) was 15 mm, the “antibacterial activity against Staphylococcus aureus (in words)” value (Staphylococcus aureus) was “significant antibacterial activity” and the “Inhibition zone, SA” value (Staphylococcus aureus) was 24 mm.
